What follows are compounds tested on HEK293 cells (assay: HEK293 VLCFA-LPC IC50 determination (13C-labeled C26:0 LPC by UHPLC/MS)). Settings: Homo sapiens, HEK293, HEK293 cells; average of one or more replicates; read-out: Average HEK293 IC50.
Type: cell-based, human
Outline: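 Suspension HEK293 cells (final 0.5 million/mL after mixing with equal volume) incubated 48 hours with compound plus 13C-acetate (1.0 mg/mL in added media), shaking at 37° C. Lipids extracted with hexane/isopropanol or methanol, C13:0 LPC standard. UHPLC/MS of 13C-labeled C26:0 LPC (638.500/104.100 m/z); IC50 by four-parameter fit.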

| SMILES | IC50 |
| --- | --- |
| O=C(Nc1ccn(-c2ccnc(F)c2)n1)[C@@]1(c2ccccc2)CC12CCCC2 [Compound 150, (2S)-N-[1-(2-fluoro-4-pyridyl)pyrazol-3-yl]-2-phenyl-spiro[2.4]heptane-2-carboxamide] | < 50 nM |
| O=C(Nc1ccn(-c2ccnc(F)c2)n1)[C@@]1(c2ccccc2)CC12CCC2 [Compound 151, (2S)-N-[1-(2-fluoro-4-pyridyl)pyrazol-3-yl]-2-phenyl-spiro[2.3]hexane-2-carboxamide] | < 50 nM |
| O=C(Nc1ccn(-c2ccnc(F)c2)n1)C(c1ccccc1)C1CCCC1 (stereo not drawn) [Compound 152, 2-cyclopentyl-N-[1-(2-fluoro-4-pyridyl)pyrazol-3-yl]-2-phenyl-acetamide] | 1700 nM |
| O=C(Cc1ccccc1)Nc1ccn(-c2ccc(C(F)(F)F)cc2)n1 [Compound 153, 2-phenyl-N-[1-[4-(trifluoromethyl)phenyl]pyrazol-3-yl]acetamide] | > 5000 nM |
| O=C(Nc1ccn(-c2ccc(C(F)(F)F)cc2)n1)C1(c2ccccc2F)CC1 [Compound 154, 1-(2-fluorophenyl)-N-[1-[4-(trifluoromethyl)phenyl]pyrazol-3-yl]cyclopropanecarboxamide] | 360 nM |
| O=C(Cc1ccccc1F)Nc1ccn(-c2ccc(C(F)(F)F)cc2)n1 [Compound 155, 2-(2-fluorophenyl)-N-[1-[4-(trifluoromethyl)phenyl]pyrazol-3-yl]acetamide] | > 5000 nM |
| O=C(Nc1ccn(-c2ccc(C(F)(F)F)cc2)n1)C1(c2ccccc2)CC1 [Compound 156, 1-phenyl-N-[1-[4-(trifluoromethyl)phenyl]pyrazol-3-yl]cyclopropanecarboxamide] | > 2000 nM |
| O=C(Cc1ccccc1)Nc1ccn(-c2cccc(C(F)(F)F)c2)n1 [Compound 157, 2-phenyl-N-[1-[3-(trifluoromethyl)phenyl]pyrazol-3-yl]acetamide] | > 5000 nM |
| O=C(Cc1ccccc1F)Nc1ccn(-c2cccc(C(F)(F)F)c2)n1 [Compound 158, 2-(2-fluorophenyl)-N-[1-[3-(trifluoromethyl)phenyl]pyrazol-3-yl]acetamide] | 2900 nM |
| O=C(Nc1ccn(-c2cccc(C(F)(F)F)c2)n1)C1(c2ccccc2)CC1 [Compound 159, 1-phenyl-N-[1-[3-(trifluoromethyl)phenyl]pyrazol-3-yl]cyclopropanecarboxamide] | > 5000 nM |
| O=C(Cc1ccccc1)Nc1ccn(-c2cc(F)ccc2F)n1 [Compound 160, N-[1-(2,5-difluorophenyl)pyrazol-3-yl]-2-phenyl-acetamide] | > 5000 nM |
| O=C(Nc1ccn(-c2cc(F)ccc2F)n1)C1(c2ccccc2F)CC1 [Compound 161, N-[1-(2,5-difluorophenyl)pyrazol-3-yl]-1-(2-fluorophenyl)cyclopropanecarboxamide] | 980 nM |
| O=C(Cc1ccccc1F)Nc1ccn(-c2cc(F)ccc2F)n1 [Compound 162, N-[1-(2,5-difluorophenyl)pyrazol-3-yl]-2-(2-fluorophenyl)acetamide] | 740 nM |
| O=C(Nc1ccn(-c2cc(F)ccc2F)n1)C1(c2ccccc2)CC1 [Compound 163, N-[1-(2,5-difluorophenyl)pyrazol-3-yl]-1-phenyl-cyclopropanecarboxamide] | 4500 nM |
| O=C(Nc1ccn(-c2ccnc(F)c2)n1)[C@]1(c2ccccc2)CC12CCCC2 [Compound 164, (2R)-N-[1-(2-fluoro-4-pyridyl)pyrazol-3-yl]-2-phenyl-spiro[2.4]heptane-2-carboxamide] | > 5000 nM |
| CC1(C)CC1(C(=O)Nc1ccn(-c2ccnc(F)c2)n1)c1ccccc1 (stereo not drawn) [Compound 165, N-[1-(2-fluoro-4-pyridyl)pyrazol-3-yl]-2,2-dimethyl-1-phenyl-cyclopropanecarboxamide] | 50 nM |
| CCC1(C)CC1(C(=O)Nc1ccn(-c2ccccc2)n1)c1ccccc1 (stereo not drawn) [Compound 166, 2-ethyl-2-methyl-1-phenyl-N-(1-phenylpyrazol-3-yl)cyclopropanecarboxamide] | 630 nM |
| O=C(Nc1ccn(-c2ccccc2)n1)C(c1ccccc1)C1CCCC1 (stereo not drawn) [Compound 167, 2-cyclopentyl-2-phenyl-N-(1-phenylpyrazol-3-yl)acetamide] | > 5000 nM |

Source: patent publication US20180251431A1 (VERTEX PHARMACEUTICALS INCORPORATED, priority 2016, published 2018)
